Key:
[1] = system: PMA/Ionomycin-induced NF-κB reporter gene activity; experiment: NF-κB luciferase reporter gene assay, PMA/Ionomycin-stimulated HEK293-NF-κB-luc cells; format: cell-based; conditions: for inhibition of PMA/Ionomycin-induced NF-κB luciferase activity: HEK293; for IC50: Table II, read-out: IC50, Inhibition of antigen receptor-mediated Nf-κB
Text: The strategy for compound library screening entailed using phorbol ester (phorbol myristic acetate [PMA]) and Ca^2+-ionophore Ionomycin to achieve PKC activation, mimicking the initiating events in the antigen receptor pathway. For convenience, we used HEK293 epithelial cells, in which it has previously been shown by siRNA-mediated gene silencing and transfection of dominant-negative mutants that PMA/Ionomycin-induced NF-κB activation is dependent on CARMA1, Bcl-10, and MALT. HEK293 cells were stably transfected with a luciferase reporter gene driven by a NF-κB responsive promoter, and the responsiveness of this integrated promoter to various NF-κB inducing stimuli was confirmed, including PMA/Ionomycin and TNF. Using these cells, 96- and 384-well plate-based high throughput screening (HTS) assays were established, with good assay performance characteristics (Z′>0.5) (PubChem AID=1384). We initially screened 53,280 chemical compounds at an average concentration of 5 μM, of which 519 primary hits were obtained (based on cut-off of 50% inhibition). Of these, 248 confirmed upon repeat testing (FIG. 1).
Cell engineering. HEK293 cells were co-transfected with pUC13-4xNFκB-Luc and p-TK-puromycin-resistance plasmids. Stable clones were selected by culture in Dulbecco's Modified Eagle's Media (InVitrogen) supplemented with 10% heat-inactivated fetal bovine serum (FBS) (Hyclone), 1% v/v penicillin-streptomycin (InVitrogen) containing 1 μg/mL puromycin. Individual clones were tested for responsiveness to PMA/Ionomycin- and to TNF-induced NF-κB reporter gene activity, and a clone was selected for HTS.
HTS. NF-κB-luciferase expressing HEK293 cells were seeded at […] per well in white 96 well plates (Greiner Bio-One) in 90 μl of DMEM and incubated overnight. 10 μl of compound-containing solution was added to each well (final 1.5 μg/mL in 1% DMSO) using a liquid handler (Biomek™ FX; Beckman Coulter). After 2 h incubation, cells were stimulated using 11 μl of a PMA (final 100 ng/mL; Calbiochem) and ionomycin (final 50 ng/mL; Calbiochem) in DMEM. Cell plates were incubated for 16 h before media was removed and 40 μl of 0.5× passive lysis buffer (Promega Corp.) was added to cell plates. Plates were allowed to stand at room temperature for at least 15 minutes before adding 40 μl of 0.125× luciferin substrate (Promega Corp.) to each well. Plates were analyzed within 30 seconds with a Criterion Analyst™ using the luminescence method (0.1 second read/well).
Several compounds synthesized by the methods described herein were tested for their efficacy at inhibiting Nf-κB activation.

[2] = system: TNF-induced NF-κB reporter gene activity; experiment: TNF-induced NF-κB reporter counter-screen in HEK293-NFκB-Luc cells; format: cell-based; conditions: TNF 10 ng/mL; CID-2858522 at concentrations as high as 4 μM
Protocol: (§1) (A) Structures of two hit compounds, CID-2858522 (left) and CID-2998237 (right) are shown; (B, C) 293-NF-κB-luc cells were pretreated for 2 hrs with various concentration of either CID-2858522 (B) or CID-29982387 (C) and then stimulated with TNF (10 ng/mL) or PMA/lonomycin (10 ng/mL; 5 ng/mL) for 16 h. Luciferase activity was measured and data were expressed as a percentage relative to control treatment with DMSO only (mean±SD; n=3). (D) 293-NF-κB-luc cells were pretreated for 2 h with various concentrations of CID-2858522 or CID-2998237, then stimulated with PMA/lonomycin for 16 h. IL-8 release into the medium was measured, expressing data as a percentage relative to control cultures treated with DMSO (mean±SD; n=3). (E) 293-NF-κB-luc cells were pretreated with CID-2858522 and then stimulated with PDBu for 16 h, IL-8 production and NF-κB luciferase activity were measured as above. (F) 293-NF-κB-luc cells were pretreated for 2 h with various concentrations of CID-2858522 or a PKC inhibitor (Bisindolylmaleimide I) at 1 μM followed by PMA/Ionomycin (10 ng/mL) stimulation for 2 h, then p65-DNA-binding activity was measured in nuclear extracts (10 μg protein), expressing data as fold-increase relative to unstimulated cells (mean±SD; n=3).
Counter Screening and Secondary Assays. […] Luciferase activity was measured using Britelite kit (Perkin Elmer). […]

[3] = system: PMA/Ionomycin-stimulated IL-8 production; experiment: PMA/Ionomycin-stimulated IL-8 production by HEK293 reporter cells (ELISA); format: cell-based, human; conditions: CID-2998237 at concentrations as high as 4 μM
Protocol: as §1
Lymphokine measurements. Human IL-2 or IL-8 levels in culture medium were measured by Enzyme-Linked Immunosorbent Assays (ELISAs), using BD OptEIA ELISAs (BD Biosciences, San Diego, Calif.), according to the manufacturer's protocol, using 96-well ELISA plates (BD Biosciences) and measuring absorbance within 30 minutes of initiating reactions using a SpectraMax 190 spectrophotometer (Molecular Devices).

Row | IC50 [1] | Molecule | inhibition of PMA/Ionomycin-induced NF-κB luciferase activity [1] | also measured
1 |  | COC(=O)C1=C(CN2CCCc3ccccc32)NC(=O)NC1c1ccc(F)cc1 (centres unmarked) [CID-2998237] | less potent | inhibition of TNF-induced NF-κB reporter gene activity [2]: some modest inhibition; effect on PMA/Ionomycin-induced IL-8 production [3]: minimal effect
2 | 70 nM | COc1c(C(C)(C)C)cc(C(=O)Cn2c(NCCCO)nc3cc(C)c(C)cc32)cc1C(C)(C)C [Compound 32, 1-(3,5-di-tert-butyl-4-methoxyphenyl)-2-(2-(3-hydroxypropylamino)-5,6-dimethyl-1H-benzo[d]imidazol-1-yl)ethanone] |  | 
3 | 250 nM | COCCCNc1nc2cc(C)c(C)cc2n1CC(=O)c1cc(C(C)(C)C)c(O)c(C(C)(C)C)c1 [Compound 33, 2-(2-(3-methoxypropylamino)-5,6-dimethyl-1H-benzo[d]imidazol-1-yl)-1-(3,5-di-tert-butyl-4-hydroxyphenyl)ethanone] |  | 
4 | 250 nM | COCCCNc1nc2cc(C)c(C)cc2n1CC(=O)c1cc(C(C)(C)C)c(OC)c(C(C)(C)C)c1 [Compound 34, 2-(2-(3-methoxypropylamino)-5,6-dimethyl-1H-benzo[d]imidazol-1-yl)-1-(3,5-di-tert-butyl-4-methoxyphenyl)ethanone] |  | 
5 | 100 nM | CCCCNc1nc2cc(C)c(C)cc2n1CC(=O)c1cc(C(C)(C)C)c(O)c(C(C)(C)C)c1 [Compound 40, 1-(3,5-di-tert-butyl-4-hydroxyphenyl)-2-(2-(butylamino)-5,6-dimethyl-1H-benzo[d]imidazol-1-yl)ethanone] |  | 
6 |  | z-ITED-fmk [reference compound] | significantly inhibit | 

Reference: patent US20090247520A1, “INHIBITORS OF ANTIGEN RECEPTOR-INDUCED NF-kappa B ACTIVATION” (The Burnham Institute for Medical Research, priority 2008, published 2009)
